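Values below derive from 48-hour exposures of cells grown in 96-well plates, with endpoints linearly interpolated between the two concentrations bracketing the appropriate inhibition level. The concentration for 50% growth inhibition is given as GI50. TGI: concentration producing complete growth inhibition.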
Assays:
Experiment in all cases: NCI tumour cell line growth inhibition, 48 h
DU-145 prostate = tested on: DU-145 prostate
LOX IMVI melanoma = tested on: LOX IMVI melanoma
NCI/ADR-RES ovarian = tested on: NCI/ADR-RES ovarian
KM12 colon = tested on: KM12 colon
MCF7 breast = tested on: MCF7 breast
HT29 colon = tested on: HT29 colon
SW-620 colon = tested on: SW-620 colon
HS 578T breast = tested on: HS 578T breast
EKVX NSCLC = tested on: EKVX NSCLC
PC-3 prostate = tested on: PC-3 prostate
MDA-MB-435 = tested on: MDA-MB-435
OVCAR-4 ovarian = tested on: OVCAR-4 ovarian
BT-549 breast = tested on: BT-549 breast
SR leukemia = tested on: SR leukemia
A549 NSCLC = tested on: A549 NSCLC
MALME-3M melanoma = tested on: MALME-3M melanoma
UACC-62 melanoma = tested on: UACC-62 melanoma
786-0 renal = tested on: 786-0 renal
M14 melanoma = tested on: M14 melanoma
TK-10 renal = tested on: TK-10 renal
K-562 leukemia = tested on: K-562 leukemia
HL-60(TB) leukemia = tested on: HL-60(TB) leukemia
SF-268 CNS = tested on: SF-268 CNS
MDA-N = tested on: MDA-N
SF-539 CNS = tested on: SF-539 CNS
OVCAR-3 ovarian = tested on: OVCAR-3 ovarian
RPMI-8226 leukemia = tested on: RPMI-8226 leukemia
SF-295 CNS = tested on: SF-295 CNS

**Q.** What does the source list for `O=S(O)O.O=S(O)O.[Co].[NH2-].[NH2-].[NH2-].[NH2-]`?
**A.** GI50 (DU-145 prostate): > 100 µM; TGI (DU-145 prostate): > 100 µM; GI50 (LOX IMVI melanoma): > 100 µM; TGI (LOX IMVI melanoma): > 100 µM; GI50 (NCI/ADR-RES ovarian): > 100 µM; TGI (NCI/ADR-RES ovarian): > 100 µM; GI50 (KM12 colon): > 100 µM; TGI (KM12 colon): > 100 µM; GI50 (MCF7 breast): > 100 µM; TGI (MCF7 breast): > 100 µM; GI50 (HT29 colon): > 100 µM; TGI (HT29 colon): > 100 µM; GI50 (SW-620 colon): > 100 µM; TGI (SW-620 colon): > 100 µM; GI50 (HS 578T breast): > 100 µM; TGI (HS 578T breast): > 100 µM; GI50 (EKVX NSCLC): > 100 µM; TGI (EKVX NSCLC): > 100 µM; GI50 (PC-3 prostate): > 100 µM; TGI (PC-3 prostate): > 100 µM; GI50 (MDA-MB-435): > 100 µM; TGI (MDA-MB-435): > 100 µM; GI50 (OVCAR-4 ovarian): > 100 µM; TGI (OVCAR-4 ovarian): > 100 µM; GI50 (BT-549 breast): > 100 µM; TGI (BT-549 breast): > 100 µM; GI50 (SR leukemia): > 100 µM; TGI (SR leukemia): > 100 µM; GI50 (A549 NSCLC): > 100 µM; TGI (A549 NSCLC): > 100 µM; GI50 (MALME-3M melanoma): > 100 µM; TGI (MALME-3M melanoma): > 100 µM; GI50 (UACC-62 melanoma): > 100 µM; TGI (UACC-62 melanoma): > 100 µM; GI50 (786-0 renal): > 100 µM; TGI (786-0 renal): > 100 µM; GI50 (M14 melanoma): > 100 µM; TGI (M14 melanoma): > 100 µM; GI50 (TK-10 renal): > 100 µM; TGI (TK-10 renal): > 100 µM; GI50 (K-562 leukemia): > 100 µM; TGI (K-562 leukemia): > 100 µM; GI50 (HL-60(TB) leukemia): > 100 µM; TGI (HL-60(TB) leukemia): > 100 µM; GI50 (SF-268 CNS): > 100 µM; TGI (SF-268 CNS): > 100 µM; GI50 (MDA-N): > 100 µM; TGI (MDA-N): > 100 µM; GI50 (SF-539 CNS): > 100 µM; TGI (SF-539 CNS): > 100 µM; GI50 (OVCAR-3 ovarian): > 100 µM; TGI (OVCAR-3 ovarian): > 100 µM; GI50 (RPMI-8226 leukemia): > 100 µM; TGI (RPMI-8226 leukemia): > 100 µM; GI50 (SF-295 CNS): > 100 µM; TGI (SF-295 CNS): > 100 µM

— PubChem BioAssay (NCI)
